The compounds below were run on MLKL phosphorylation (pMLKL) in HT29-L23 cells (assay: MLKL Phosphorylation High-Content Assay). Conditions: Homo sapiens, 6 h, necroptosis induced with human TNFα, SMAC mimetic and Z-VAD, read-out: LE pMLKL HC IC50.
Type: cell-based
Experimental: Following 6 h incubation at 37° C. […] MLKL phosphorylation was detected using anti-MLKL (phospho […]) antibody (Abcam #ab187091) (1:1000 dilution in Blocking Buffer [PBS supplemented with 0.1% BSA]) with ON incubation at 4° C. […] Following another three cycles of washes in PBS, the microplates were sealed, and cellular images were acquired in the Cellomics ArrayScan VTI high-content imager equipped with an X1 camera. […] The image sets were analyzed using the Compartmental Analysis Bioapplication software (Cellomics). The level of MLKL phosphorylation was quantified as […].

Row | Compound | IC50
1 | COc1ccc(OCCC(F)(F)C(C)(O)c2ccc(F)cc2)c(F)c1-c1ccn2nc(N)nc2c1 (racemic) [Example 22, 5-(3-(2-amino-[1,2,4]triazolo[1,5-a]pyridin-7-yl)-2-fluoro-4-methoxyphenoxy)-3,3-difluoro-2-(4-fluorophenyl)pentan-2-ol] | 0.9 nM
2 | CC(O)(c1cccnc1)C(F)(F)CCOc1c(F)ccc(-c2ccn3nc(N)nc3c2)c1F (single isomer, unassigned) [Example 36, 5-(3-(2-amino-[1,2,4]triazolo[1,5-a]pyridin-7-yl)-2,6-difluorophenoxy)-3,3-difluoro-2-(pyridin-3-yl)pentan-2-ol] | 5 nM
3 | Nc1nc2cc(-c3cccc(OCCC(F)(F)C(O)c4ccc(F)cc4)c3F)ccn2n1 (single isomer, unassigned) [Example 71, 4-(3-(2-amino-[1,2,4]triazolo[1,5-a]pyridin-7-yl)-2-fluorophenoxy)-2,2-difluoro-1-(4-fluorophenyl)butan-1-ol] | 0.6 nM
4 | Cc1ccc(-c2ccn3nc(N)nc3c2)c(F)c1OCCC(F)(F)C(O)c1ccc(F)cc1 (racemic) [Example 66, 4-(3-(2-amino-[1,2,4]triazolo[1,5-a]pyridin-7-yl)-2-fluoro-6-methylphenoxy)-2,2-difluoro-1-(4-fluorophenyl)butan-1-ol] | 0.3 nM

Same assay, conditions: necroptosis induced with human TNFα, SMAC mimetic and Z-VAD, 6 h, read-out: LE pMLKL HC IC50

Row | Compound | IC50
5 | CC(O)(c1ccc(Cl)cc1)C(F)(F)CCOc1c(F)ccc(-c2ccn3nc(N)nc3c2)c1F (single isomer, unassigned) [Example 46, 5-(3-(2-amino-[1,2,4]triazolo[1,5-a]pyridin-7-yl)-2,6-difluorophenoxy)-2-(4-chlorophenyl)-3,3-difluoropentan-2-ol] | 0.4 nM
6 | Nc1nc2cc(-c3cccc(OCCC(F)C(O)c4ccc(F)cc4)c3F)ccn2n1 (single isomer, unassigned) [Example 85, 4-(3-(2-amino-[1,2,4]triazolo[1,5-a]pyridin-7-yl)-2-fluorophenoxy)-2-fluoro-1-(4-fluorophenyl)butan-1-ol] | 0.9 nM
7 | CC(C)CC(O)C(F)(F)CCOc1cccc(-c2ccn3nc(N)nc3c2)c1F (single isomer, unassigned) [Example 7, 1-(3-(2-amino-[1,2,4]triazolo[1,5-a]pyridin-7-yl)-2-fluorophenoxy)-3,3-difluoro-6-methylheptan-4-ol] | 160 nM
8 | Nc1nc2cc(-c3ccc(F)c(OCCC(F)C(O)c4ccc(F)cc4)c3F)ccn2n1 (single isomer, unassigned) [Example 102, 4-(3-(2-amino-[1,2,4]triazolo[1,5-a]pyridin-7-yl)-2,6-difluorophenoxy)-2-fluoro-1-(4-fluorophenyl)butan-1-ol] | 3 nM
9 | CC(O)(c1ccc(F)cc1)C(F)CCOc1cccc(-c2ccn3nc(N)nc3c2)c1F (single isomer, unassigned) [Example 90, 5-(3-(2-amino-[1,2,4]triazolo[1,5-a]pyridin-7-yl)-2-fluorophenoxy)-3-fluoro-2-(4-fluorophenyl)pentan-2-ol] | 3 nM
10 | Nc1nc2cc(-c3ccc(Cl)c(OCCC(F)C(O)c4ccc(F)cc4)c3F)ccn2n1 (single isomer, unassigned) [Example 101, 4-(3-(2-amino-[1,2,4]triazolo[1,5-a]pyridin-7-yl)-6-chloro-2-fluorophenoxy)-2-fluoro-1-(4-fluorophenyl)butan-1-ol] | 30 nM
11 | Nc1nc2cc(-c3ccc(F)c(OCCC(F)C(O)c4ccc(F)cc4)c3F)ccn2n1 (single isomer, unassigned) [Example 105, 4-(3-(2-amino-[1,2,4]triazolo-[1,5-a]pyridin-7-yl)-2,6-difluorophenoxy)-2-fluoro-1-(4-fluorophenyl)butan-1-ol] | 12 nM
12 | Nc1nc2cc(-c3cc(F)c(F)c(OCCC(F)C(O)c4ccc(F)cc4)c3)ccn2n1 (single isomer, unassigned) [Example 119, 4-(5-(2-amino-[1,2,4]triazolo[1,5-a]pyridin-7-yl)-2,3-difluorophenoxy)-2-fluoro-1-(4-fluorophenyl)butan-1-ol] | 580 nM
13 | CC(C)(CC(F)(F)C(C)(O)c1ccc(F)cc1)Oc1c(F)ccc(-c2ccn3nc(N)nc3c2)c1F (single isomer, unassigned) [Example 130, 5-(3-(2-amino-[1,2,4]triazolo[1,5-a]pyridin-7-yl)-2,6-difluorophenoxy)-3,3-difluoro-2-(4-fluorophenyl)-5-methylhexan-2-ol] | 4200 nM
14 | Nc1nc2cc(-c3cccc(OCCC(F)C(O)c4ccc(F)cc4)c3F)ccn2n1 (single isomer, unassigned) [Example 87, 4-(3-(2-amino-[1,2,4]triazolo[1,5-a]pyridin-7-yl)-2-fluorophenoxy)-2-fluoro-1-(4-fluorophenyl)butan-1-ol] | 0.4 nM
15 | CC(O)(c1ccc(F)cc1)C(F)(F)CCOc1c(C(F)F)ccc(-c2ccn3nc(N)nc3c2)c1F (single isomer, unassigned) [Example 26, 5-(3-(2-amino-[1,2,4]triazolo[1,5-a]pyridin-7-yl)-6-(difluoromethyl)-2-fluorophenoxy)-3,3-difluoro-2-(4-fluorophenyl)pentan-2-ol] | 0.3 nM
16 | Nc1nc2cc(-c3ccc(F)c(OCCC(F)(F)C(O)c4ccc(F)cc4)c3)ccn2n1 (single isomer, unassigned) [Example 53, 4-(5-(2-amino-[1,2,4]triazolo[1,5-a]pyridin-7-yl)-2-fluorophenoxy)-2,2-difluoro-1-(4-fluorophenyl)butan-1-ol] | 1.5 nM
17 | Cc1ccc(-c2ccn3nc(N)nc3c2)c(F)c1OCCC(F)C(O)c1ccc(F)cc1 (single isomer, unassigned) [Example 109, 4-(3-(2-amino-[1,2,4]triazolo[1,5-a]pyridin-7-yl)-2-fluoro-6-methylphenoxy)-2-fluoro-1-(4-fluorophenyl)butan-1-ol] | 0.1 nM
18 | CC(O)(c1ccccc1F)C(F)(F)CCOc1c(F)ccc(-c2ccn3nc(N)nc3c2)c1F (single isomer, unassigned) [Example 124, 5-(3-(2-amino-[1,2,4]triazolo[1,5-a]pyridin-7-yl)-2,6-difluorophenoxy)-3,3-difluoro-2-(2-fluorophenyl)pentan-2-ol] | 160 nM
19 | Nc1nc2cc(-c3ccc(Cl)c(OCCC(F)C(O)c4ccc(F)cc4)c3F)ccn2n1 (single isomer, unassigned) [Example 99, 4-(3-(2-amino-[1,2,4]triazolo[1,5-a]pyridin-7-yl)-6-chloro-2-fluorophenoxy)-2-fluoro-1-(4-fluorophenyl)butan-1-ol] | 15 nM
20 | Nc1nc2cc(-c3cc(F)c(F)c(OCCC(F)C(O)c4ccc(F)cc4)c3)ccn2n1 (single isomer, unassigned) [Example 118, 4-(5-(2-amino-[1,2,4]triazolo[1,5-a]pyridin-7-yl)-2,3-difluorophenoxy)-2-fluoro-1-(4-fluorophenyl)butan-1-ol] | 1040 nM
21 | Cc1ccc(-c2ccn3nc(N)nc3c2)c(F)c1OCCC(F)C(C)(O)c1ccc(F)cc1 (single isomer, unassigned) [Example 114, 5-(3-(2-amino-[1,2,4]triazolo[1,5-a]pyridin-7-yl)-2-fluoro-6-methylphenoxy)-3-fluoro-2-(4-fluorophenyl)pentan-2-ol] | 0.1 nM
22 | CC(O)(c1ccc(F)cc1)C(F)(F)CCOc1cc(F)cc(-c2ccn3nc(N)nc3c2)c1F (single isomer, unassigned) [Example 11, 5-(3-(2-amino-[1,2,4]triazolo[1,5-a]pyridin-7-yl)-2,5-difluorophenoxy)-3,3-difluoro-2-(4-fluorophenyl)pentan-2-ol] | 0.2 nM
23 | COc1cc(F)c(OCCC(F)(F)C(C)(O)c2ccc(F)cc2)c(F)c1-c1ccn2nc(N)nc2c1 (single isomer, unassigned) [Example 20, 5-(3-(2-amino-[1,2,4]triazolo[1,5-a]pyridin-7-yl)-2,6-difluoro-4-methoxyphenoxy)-3,3-difluoro-2-(4-fluorophenyl)pentan-2-ol] | 110 nM
24 | Nc1nc2cc(-c3ccc(Cl)c(OCCC(F)(F)C(O)c4ccc(F)cc4)c3F)ccn2n1 (single isomer, unassigned) [Example 60, 4-(3-(2-amino-[1,2,4]triazolo[1,5-a]pyridin-7-yl)-6-chloro-2-fluorophenoxy)-2,2-difluoro-1-(4-fluorophenyl)butan-1-ol] | 5 nM
25 | Cc1ccc(-c2ccn3nc(N)nc3c2)c(F)c1OCCC(F)C(O)c1ccc(F)cc1 (single isomer, unassigned) [Example 108, 4-(3-(2-amino-[1,2,4]triazolo[1,5-a]pyridin-7-yl)-2-fluoro-6-methylphenoxy)-2-fluoro-1-(4-fluorophenyl)butan-1-ol] | 2.4 nM
26 | CC(O)(c1ccc(F)cc1)C(F)CCOc1c(F)ccc(-c2ccn3nc(N)nc3c2)c1F (single isomer, unassigned) [Example 96, 5-(3-(2-amino-[1,2,4]triazolo[1,5-a]pyridin-7-yl)-2,6-difluorophenoxy)-3-fluoro-2-(4-fluorophenyl)pentan-2-ol] | 2 nM
27 | CC(O)(c1ccc(F)cc1)C(F)(F)CCOc1c(Cl)ccc(-c2ccn3nc(N)nc3c2)c1F (single isomer, unassigned) [Example 5, 5-(3-(2-amino-[1,2,4]triazolo[1,5-a]pyridin-7-yl)-6-chloro-2-fluorophenoxy)-3,3-difluoro-2-(4-fluorophenyl)pentan-2-ol] | 150 nM
28 | CC(O)(c1ccc(F)cc1)C(F)(F)CCOc1c(C(F)F)ccc(-c2ccn3nc(N)nc3c2)c1F (single isomer, unassigned) [Example 25, 5-(3-(2-amino-[1,2,4]triazolo[1,5-a]pyridin-7-yl)-6-(difluoromethyl)-2-fluorophenoxy)-3,3-difluoro-2-(4-fluorophenyl)pentan-2-ol] | 1.5 nM
